From patent EP0004810B1 (priority 1978, dated 1979)

Legend:
comédons = tested on: comédons; parameters: species or system souris femelles atrichis «rhinocéros»; conditions: in vivo
PI[…] = assay type: cell-based, Pityrosporum ovale

SMILES | D (grand diamètre) (comédons) | Rapport d/D (comédons) | d (diamètre de l'orifice) (comédons) | C.M.I. (PI[…]) [µg/mL]
O=C(OOC(=O)c1ccccc1)c1ccccc1 [Peroxyde de benzoyle, peroxyde de benzoyle, reference compound] | 27,0±1,8 unités arbitraires | 0,54 | 14,7±2,1 unités arbitraires | –
O=C(OOC(=O)c1cccs1)c1cccs1 [Peroxyde de thénoyle, peroxyde de thénoyle] | 23,5±1,6 unités arbitraires | 0,90 | 21,1±1,7 unités arbitraires | 250
